The results in this text go back to ChEMBL document CHEMBL1137374, “Discovery of 6-N,N-bis(2,2,2-trifluoroethyl)amino- 4-trifluoromethylquinolin-2(1H)-one as a novel selective androgen receptor modulator” (J Med Chem, 2006).

The species named for test [1] is Rattus norvegicus. As to the kind of experiment: Anabolic activity in orchidectomized rat measured as increase in levator ani muscle weight relative to intact rat. It counts as functional.
Test [2] deals with Rattus norvegicus. As to the kind of experiment: Anabolic activity in orchidectomized rat at 3.0 mg/kg, po measured as increase in levator ani muscle weight to eugonadal level. Details: dose 3 mg/kg. It counts as functional, organism-based.
The target in test [3] is T1, Glucocorticoid receptor (Homo sapiens, UniProt P04150).
T1 sequence (P04150 whole entry): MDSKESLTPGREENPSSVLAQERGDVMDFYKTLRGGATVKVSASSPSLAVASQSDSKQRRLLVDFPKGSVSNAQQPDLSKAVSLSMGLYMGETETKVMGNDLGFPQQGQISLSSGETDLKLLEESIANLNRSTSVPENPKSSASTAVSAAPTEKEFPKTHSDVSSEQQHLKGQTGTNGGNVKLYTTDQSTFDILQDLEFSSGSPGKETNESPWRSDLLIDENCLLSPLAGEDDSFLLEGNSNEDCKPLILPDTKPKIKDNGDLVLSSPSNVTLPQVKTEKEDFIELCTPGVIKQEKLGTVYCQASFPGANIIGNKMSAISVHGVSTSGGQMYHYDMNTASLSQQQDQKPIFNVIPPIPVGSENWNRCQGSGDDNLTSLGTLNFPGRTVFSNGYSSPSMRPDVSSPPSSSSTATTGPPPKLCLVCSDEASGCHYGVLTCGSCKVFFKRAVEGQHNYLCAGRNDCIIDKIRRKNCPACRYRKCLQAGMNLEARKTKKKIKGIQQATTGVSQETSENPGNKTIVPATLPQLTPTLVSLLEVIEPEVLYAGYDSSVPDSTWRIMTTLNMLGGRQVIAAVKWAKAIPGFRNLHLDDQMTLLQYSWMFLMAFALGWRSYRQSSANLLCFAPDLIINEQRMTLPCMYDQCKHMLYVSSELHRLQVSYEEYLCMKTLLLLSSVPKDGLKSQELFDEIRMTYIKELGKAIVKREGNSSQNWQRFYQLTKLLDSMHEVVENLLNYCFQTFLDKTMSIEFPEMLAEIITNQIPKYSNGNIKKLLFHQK
As to the kind of experiment: Binding affinity to glucocorticoid receptor.

In test [4] the target is T2, Estrogen receptor (Homo sapiens, UniProt P03372).
T2 sequence (P03372 whole entry): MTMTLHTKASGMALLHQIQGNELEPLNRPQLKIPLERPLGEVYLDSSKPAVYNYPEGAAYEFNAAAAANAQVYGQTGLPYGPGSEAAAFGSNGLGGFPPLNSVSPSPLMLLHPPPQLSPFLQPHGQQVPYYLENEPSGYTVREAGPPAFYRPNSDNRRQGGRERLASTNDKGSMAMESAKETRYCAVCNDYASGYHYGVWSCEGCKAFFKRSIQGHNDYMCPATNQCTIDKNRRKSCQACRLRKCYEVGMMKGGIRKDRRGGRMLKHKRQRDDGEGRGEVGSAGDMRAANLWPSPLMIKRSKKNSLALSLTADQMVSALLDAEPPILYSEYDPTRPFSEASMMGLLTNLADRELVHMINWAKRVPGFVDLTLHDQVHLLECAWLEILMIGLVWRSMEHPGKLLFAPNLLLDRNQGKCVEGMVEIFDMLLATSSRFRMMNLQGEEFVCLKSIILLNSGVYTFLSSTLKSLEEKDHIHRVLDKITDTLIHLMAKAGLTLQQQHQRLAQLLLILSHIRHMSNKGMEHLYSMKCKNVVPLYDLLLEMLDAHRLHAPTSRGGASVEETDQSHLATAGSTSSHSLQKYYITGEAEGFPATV
Description: Binding affinity to estrogen receptor

The target of test [5] is T3, Progesterone receptor (Homo sapiens, UniProt P06401).
T3 sequence (P06401 whole entry): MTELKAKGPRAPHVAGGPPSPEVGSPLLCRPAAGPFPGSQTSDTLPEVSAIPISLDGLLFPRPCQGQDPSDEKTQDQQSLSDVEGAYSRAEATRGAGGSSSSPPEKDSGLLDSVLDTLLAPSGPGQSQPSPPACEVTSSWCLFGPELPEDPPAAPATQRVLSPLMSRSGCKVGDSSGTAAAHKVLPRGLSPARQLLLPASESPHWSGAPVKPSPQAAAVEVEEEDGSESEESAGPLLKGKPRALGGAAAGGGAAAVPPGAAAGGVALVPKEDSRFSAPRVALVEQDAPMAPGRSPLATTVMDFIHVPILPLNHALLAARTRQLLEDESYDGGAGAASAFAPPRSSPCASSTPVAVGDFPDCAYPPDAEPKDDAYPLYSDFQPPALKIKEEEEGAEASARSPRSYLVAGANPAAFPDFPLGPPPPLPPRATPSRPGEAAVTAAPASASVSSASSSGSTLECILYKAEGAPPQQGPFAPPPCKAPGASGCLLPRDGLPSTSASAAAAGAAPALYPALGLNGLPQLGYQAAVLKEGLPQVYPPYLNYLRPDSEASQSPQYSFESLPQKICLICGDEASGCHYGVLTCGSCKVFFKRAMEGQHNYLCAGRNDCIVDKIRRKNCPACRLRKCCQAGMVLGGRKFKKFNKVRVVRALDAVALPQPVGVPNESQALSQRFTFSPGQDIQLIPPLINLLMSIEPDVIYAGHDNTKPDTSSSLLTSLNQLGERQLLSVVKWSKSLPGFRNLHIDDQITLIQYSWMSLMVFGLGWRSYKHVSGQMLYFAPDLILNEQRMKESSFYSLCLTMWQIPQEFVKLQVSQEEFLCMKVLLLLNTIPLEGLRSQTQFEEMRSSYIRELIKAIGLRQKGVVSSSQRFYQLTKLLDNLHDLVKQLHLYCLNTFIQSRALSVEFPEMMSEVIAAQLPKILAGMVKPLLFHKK
Description: Binding affinity to progesterone receptor

For test [6], the system named is Rattus norvegicus. The experiment in a line: Androgenic activity in orchidectomized rat at 100 mg/kg, po measured as increase in ventral prostate weight to intact level. On the set-up: dose 100 mg/kg. The class given is functional, organism-based. The following applies: Prostate gland.
The target of test [7] is T4, Mineralocorticoid receptor (Homo sapiens, UniProt P08235).
T4 sequence (P08235 whole entry): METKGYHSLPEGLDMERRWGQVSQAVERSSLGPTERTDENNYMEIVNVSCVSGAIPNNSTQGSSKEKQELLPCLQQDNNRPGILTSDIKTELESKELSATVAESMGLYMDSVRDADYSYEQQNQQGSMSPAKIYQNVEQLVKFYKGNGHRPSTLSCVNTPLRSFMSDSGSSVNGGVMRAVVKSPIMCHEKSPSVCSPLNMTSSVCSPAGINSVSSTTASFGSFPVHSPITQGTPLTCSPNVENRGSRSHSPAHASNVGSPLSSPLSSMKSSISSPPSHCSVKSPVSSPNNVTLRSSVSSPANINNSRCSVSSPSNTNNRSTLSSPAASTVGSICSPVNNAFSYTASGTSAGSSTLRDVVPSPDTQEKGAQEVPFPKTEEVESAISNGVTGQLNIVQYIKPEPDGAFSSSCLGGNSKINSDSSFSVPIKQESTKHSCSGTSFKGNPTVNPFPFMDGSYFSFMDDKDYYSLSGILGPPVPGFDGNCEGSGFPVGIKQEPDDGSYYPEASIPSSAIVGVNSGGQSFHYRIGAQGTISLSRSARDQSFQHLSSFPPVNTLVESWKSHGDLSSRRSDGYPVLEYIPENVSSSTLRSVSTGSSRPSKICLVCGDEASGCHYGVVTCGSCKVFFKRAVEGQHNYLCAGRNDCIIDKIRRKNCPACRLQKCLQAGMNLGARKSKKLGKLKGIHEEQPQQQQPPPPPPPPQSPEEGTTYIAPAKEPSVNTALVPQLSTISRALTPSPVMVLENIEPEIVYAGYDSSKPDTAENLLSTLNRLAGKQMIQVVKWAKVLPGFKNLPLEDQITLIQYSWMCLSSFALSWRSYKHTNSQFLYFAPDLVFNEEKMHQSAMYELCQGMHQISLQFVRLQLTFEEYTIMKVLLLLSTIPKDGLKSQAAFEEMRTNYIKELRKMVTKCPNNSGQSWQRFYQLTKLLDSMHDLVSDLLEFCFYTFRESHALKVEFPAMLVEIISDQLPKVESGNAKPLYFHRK
As to the kind of experiment: Binding affinity to mineralocorticoid receptor.

The subject of test [8] is Rattus norvegicus. The experiment in a line: Anabolic activity in orchidectomized rat at 2.0 mg/kg, sc measured as increase in levator ani muscle weight to eugonadal level. It counts as functional, organism-based. Details: dose 2 mg/kg.
Test [9] concerns Rattus norvegicus. As to the kind of experiment: Androgenic activity in orchidectomized rat at 2.0 mg/kg, sc measured as increase in ventral prostate weight to eugonadal level. The class given is functional, organism-based. Details: dose 2 mg/kg. The following applies: Prostate gland.
Test [10] deals with T5, Androgen receptor (Homo sapiens, UniProt P10275).
T5 sequence (P10275 whole entry): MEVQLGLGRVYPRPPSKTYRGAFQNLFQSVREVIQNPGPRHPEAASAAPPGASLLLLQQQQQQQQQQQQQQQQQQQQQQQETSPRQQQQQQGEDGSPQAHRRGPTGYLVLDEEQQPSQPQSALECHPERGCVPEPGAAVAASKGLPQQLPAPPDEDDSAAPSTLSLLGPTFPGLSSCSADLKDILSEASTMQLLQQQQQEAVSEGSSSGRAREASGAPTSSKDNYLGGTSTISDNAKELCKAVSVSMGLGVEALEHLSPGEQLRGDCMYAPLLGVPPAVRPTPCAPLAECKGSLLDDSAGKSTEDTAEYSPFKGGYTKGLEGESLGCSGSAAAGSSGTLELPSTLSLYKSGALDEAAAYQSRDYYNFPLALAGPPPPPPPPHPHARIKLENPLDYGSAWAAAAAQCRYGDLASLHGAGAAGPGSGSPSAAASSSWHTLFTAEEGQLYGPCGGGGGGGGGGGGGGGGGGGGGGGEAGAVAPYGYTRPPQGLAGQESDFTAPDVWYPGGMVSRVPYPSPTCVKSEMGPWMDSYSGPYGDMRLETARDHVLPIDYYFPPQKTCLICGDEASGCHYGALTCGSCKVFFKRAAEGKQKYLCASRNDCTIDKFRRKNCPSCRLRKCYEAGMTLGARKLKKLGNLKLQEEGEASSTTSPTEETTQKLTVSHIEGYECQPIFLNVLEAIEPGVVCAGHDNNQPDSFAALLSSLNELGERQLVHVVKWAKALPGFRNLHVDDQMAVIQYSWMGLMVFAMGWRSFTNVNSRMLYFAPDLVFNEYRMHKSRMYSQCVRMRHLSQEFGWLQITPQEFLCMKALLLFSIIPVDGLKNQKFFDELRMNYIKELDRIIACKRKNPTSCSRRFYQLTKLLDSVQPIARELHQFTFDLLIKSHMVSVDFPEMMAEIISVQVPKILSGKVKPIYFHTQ
Description: Displacement of [3H]DHT from human androgen receptor expressed in MDA-MB-453 cells by whole cell receptor binding assay

The target of test [11] is T5, Androgen receptor. The source holds these as a separate data set.
Description: Agonist activity at human androgen receptor in CV1 cells measured as stimulation of luciferase reporter gene activity by cotransfection assay
Test [12] concerns the target T5, Androgen receptor. This is another data set of the same source.
Description: Antagonist activity against human androgen receptor in CV1 cells measured as inhibition of DHT-stimulated luciferase reporter gene activity by cotransfection assay

What is called Ki is a dissociation constant, usually derived from enzyme kinetics or from competition with a known ligand. Low values mean a stronger hold on the target, high ones a looser hold on the target. In general, EC50 refers to the concentration that produces a half-maximal response. Broadly, the IC50 is the midpoint of a concentration-inhibition curve. Read a high IC50 as weaker potency in that assay.

Structures are written as SMILES. Activity calls are given as the source filed them. The rule behind the calls is not given here. A value given as a limit tells only on which side of the number the result lay.

Take `O=c1cc(C(F)(F)F)c2cc(N(CC(F)(F)F)CC(F)(F)F)ccc2[nH]1`: in test [1], the Activity is listed as 150%. Moreover, the result in test [2] and in [6] was Active. Besides, the Ki in test [3], in test [4], in test [5] and in [7] was greater than 1000 nM each time.
On to `C[C@]12CC[C@H]3[C@@H](CCC4=CC(=O)CC[C@@]43C)[C@@H]1CC[C@@H]2O`, for which the outcome in [8] and in [9] was Active.
As for `Oc1cc(C(F)(F)F)c2cc(N(CC3CC3)CC(F)(F)F)ccc2n1`, the Ki in test [10] came to 7.1 nM. Moreover, the concentration for a half-maximal effect (EC50) in test [11] worked out at 2.8 nM. Besides, the IC50 in test [12] was greater than 10 µM.
